Test systems include SNB-75 CNS; NCI/ADR-RES ovarian; M14 melanoma; PC-3 prostate; 786-0 renal; HOP-92 NSCLC; ACHN renal; NCI-H226 lung; OVCAR-4 ovarian.
Assay in all cases: NCI anticancer screen, dose series, 48 h

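Tested at 5 concentrations; 48 h exposure; 96-well plates; endpoints linearly interpolated, else capped at highest concentration. The concentration for 50% growth inhibition is given as GI50. TGI marks complete inhibition of growth.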

Consider `O=C(NC12CC3CC(CC(C3)C1)C2)n1cnc2c(Cl)ncnc21`, for which the TGI was 73.8 µM in the experiment with SNB-75 CNS; above 100 µM in the experiment on NCI/ADR-RES ovarian; 50.7 µM in the experiment with M14 melanoma; 66.6 µM in the experiment on PC-3 prostate; above 100 µM with 786-0 renal; above 100 µM with HOP-92 NSCLC. Also, the TGI in the experiment on ACHN renal came out at 50.8 µM.
`O=C(NC1CCCCC1)N1CCNC1=S`: the TGI in the experiment with SNB-75 CNS, in the experiment on NCI-H226 lung, in the experiment with NCI/ADR-RES ovarian, in the experiment on M14 melanoma, in the experiment on 786-0 renal and with OVCAR-4 ovarian was above 100 µM throughout. Also, the TGI in the experiment on HOP-92 NSCLC and in the experiment with ACHN renal was above 100 µM throughout.
Turning to `O=C(/C=C/c1cc2ccccc2[nH]c1=O)c1ccc(O)cc1`, the GI50 in the experiment with SNB-75 CNS was 9.3 µM; with NCI-H226 lung it was 3.29 µM; with NCI/ADR-RES ovarian it was 2900 nM; with M14 melanoma, 2600 nM; in the experiment with PC-3 prostate it was 5.39 µM; in the experiment on HOP-92 NSCLC it was 3.26 µM. In addition, the GI50 in the experiment with ACHN renal is 2670 nM. In addition, the TGI was 23 µM with SNB-75 CNS; 10.9 µM in the experiment with NCI-H226 lung; above 100 µM in the experiment with NCI/ADR-RES ovarian; 6.57 µM in the experiment with M14 melanoma; 55.3 µM in the experiment with PC-3 prostate; 23.2 µM in the experiment with HOP-92 NSCLC. This compound returned a TGI in the experiment with ACHN renal of 8.86 µM.
In the case of `O=C(N/N=C/c1ccc(O)cc1)NNCCO`, the TGI in the experiment with SNB-75 CNS, in the experiment on NCI-H226 lung, in the experiment with NCI/ADR-RES ovarian, in the experiment on M14 melanoma, in the experiment on PC-3 prostate and in the experiment on 786-0 renal was above 100 µM each time.
With `CCCC(CCC(=O)O)(CCC(=O)O)[N+](=O)[O-]`, the TGI in the experiment on SNB-75 CNS, in the experiment with NCI-H226 lung, with NCI/ADR-RES ovarian, with M14 melanoma, in the experiment on PC-3 prostate and in the experiment with 786-0 renal was above 100 µM each time. The TGI in the experiment on HOP-92 NSCLC and with ACHN renal was above 100 µM throughout.
Turning to `Cc1cc2nc3c(C)c4ccccc4c(C)n3c2cc1C`, the TGI in the experiment with SNB-75 CNS is above 10 µM; in the experiment with NCI/ADR-RES ovarian, 8.41 µM; in the experiment with M14 melanoma, above 10 µM; with PC-3 prostate it was above 10 µM; with 786-0 renal, 6.62 µM; with OVCAR-4 ovarian it was above 10 µM. The results for the TGI with HOP-92 NSCLC and with ACHN renal were 8.45 µM and above 10 µM, respectively.
As for `Cc1ccc2c(=O)cc(-c3ccccc3)[nH]c2n1`, the TGI was above 100 µM with SNB-75 CNS; 9.69 µM in the experiment on NCI-H226 lung; 0.31 µM in the experiment with NCI/ADR-RES ovarian; 26.7 µM in the experiment on PC-3 prostate; above 86 µM in the experiment with 786-0 renal; above 100 µM in the experiment on OVCAR-4 ovarian. Further, the results for the TGI with HOP-92 NSCLC and in the experiment with ACHN renal were above 55.2 µM and above 100 µM, respectively.
On to `Nc1nc(Cl)cc(OCC2(CO)CCCCC2)n1`, for which the TGI in the experiment with SNB-75 CNS, in the experiment on NCI-H226 lung, with NCI/ADR-RES ovarian, in the experiment with PC-3 prostate, with 786-0 renal and with OVCAR-4 ovarian was above 100 µM in each case. Further, the TGI in the experiment on HOP-92 NSCLC and with ACHN renal was above 100 µM in each case.
With `CCOC(=O)C1=C(C)NC(c2ccccc2)=C(C(=O)OCc2ccccc2)C1C#Cc1ccccc1` (centres undefined), the TGI in the experiment with SNB-75 CNS, with NCI-H226 lung, with NCI/ADR-RES ovarian, in the experiment on M14 melanoma, in the experiment on PC-3 prostate and in the experiment on 786-0 renal was above 100 µM throughout.
Take `O=C(O)C(=Cc1ccc(-c2ccc([N+](=O)[O-])cc2)o1)C(=O)O`: the TGI in the experiment with SNB-75 CNS, with NCI-H226 lung, with NCI/ADR-RES ovarian, with M14 melanoma, in the experiment on PC-3 prostate and in the experiment with 786-0 renal was above 100 µM in each case. The compound also showed a TGI in the experiment on ACHN renal above 100 µM.
On to `N#Cc1ccccc1C#C/C=C\C#Cc1ccccn1`, for which the TGI was 67.6 µM in the experiment on SNB-75 CNS; 34.3 µM in the experiment with NCI/ADR-RES ovarian; 28.8 µM in the experiment with M14 melanoma; 40.6 µM in the experiment with PC-3 prostate; 41.9 µM in the experiment with 786-0 renal; above 100 µM with OVCAR-4 ovarian. For the same compound, the TGI in the experiment on HOP-92 NSCLC and with ACHN renal was above 100 µM each time.
As to `COc1ccc(C2=Nn3c(nc4sc5c(c4c3=O)CCCC5)SC2)cc1`, the TGI with NCI-H226 lung, with NCI/ADR-RES ovarian, in the experiment on PC-3 prostate, with 786-0 renal, in the experiment with OVCAR-4 ovarian and in the experiment with HOP-92 NSCLC was above 100 µM each time. The compound further came in with a TGI in the experiment with ACHN renal above 100 µM.
Consider `CCCN1CCN(c2ccc3nc(-c4ccc5nc(-c6ccc(OCC)cc6)[nH]c5c4)[nH]c3c2)CC1`, for which the GI50 in the experiment on SNB-75 CNS was 0.567 µM; in the experiment on NCI-H226 lung, 10.1 µM; with NCI/ADR-RES ovarian, 2840 nM; in the experiment on HOP-92 NSCLC, 5.05 µM; in the experiment with ACHN renal it was 1150 nM. For the same compound, the TGI in the experiment with SNB-75 CNS is 29.6 µM; with NCI-H226 lung, 32.9 µM; in the experiment on NCI/ADR-RES ovarian, above 100 µM; in the experiment with HOP-92 NSCLC, 28.4 µM; with ACHN renal, 2.4 µM.
For the compound `Cc1ccc(S(=O)(=O)N(CC(O)COc2ccccc2)c2ccccc2Cl)cc1` (centres undefined), the TGI with SNB-75 CNS was 41.7 µM; with NCI-H226 lung, 32.3 µM; in the experiment with NCI/ADR-RES ovarian, 37.8 µM; with M14 melanoma, 31 µM; in the experiment with PC-3 prostate it was 30.8 µM; in the experiment on 786-0 renal it was 32.4 µM. For the same compound, the TGI stood at 26.1 µM with OVCAR-4 ovarian and 33.7 µM with ACHN renal.
In the case of `O=C1/C(=C/Cc2ccco2)N=C(c2ccccc2)N1c1nc2ccc(Sc3ccccc3)cc2[nH]1`, the TGI in the experiment with SNB-75 CNS came to 75.7 µM; in the experiment with NCI/ADR-RES ovarian it was 72.4 µM; in the experiment on M14 melanoma it was 42.5 µM; in the experiment with PC-3 prostate it was 53.6 µM; with 786-0 renal it was 38.5 µM; in the experiment with OVCAR-4 ovarian, 86.3 µM. The TGI stood at 67.6 µM in the experiment on HOP-92 NSCLC and 44.9 µM in the experiment with ACHN renal.
For the compound `CCc1cc2c(cc1O)CC[C@@H]1[C@@H]2CC[C@]2(C)[C@@H](O)CC[C@@H]12`, the TGI in the experiment on SNB-75 CNS is 7.59 µM; in the experiment on NCI-H226 lung, 26.6 µM; in the experiment on NCI/ADR-RES ovarian, 9.92 µM; with M14 melanoma it was 19.8 µM; in the experiment with PC-3 prostate, 37.3 µM; in the experiment on 786-0 renal, 17.8 µM. For the same compound, the values for the TGI in the experiment with OVCAR-4 ovarian and with ACHN renal were 27.3 µM and 22.9 µM, respectively.

The record behind these values is PubChem BioAssay (NCI).
